Results reported in PubChem BioAssay AID2060896 (Molecular Pharmacology Branch, DTP, NCI, 2025).
Blank lines part the entries; values can stand above or below the molecule they belong to.

Tested on: 941728-121-R-J1-PDC complex spheroid viability
Test: Anticancer human tumor 941728-121-R-J1-PDC patient-derived lung adenocarcinoma cell line growth inhibition [RAS]
Settings: for IC50: curve of first compound; for viability, T/C: stronger effect = lower value
Procedure, shortened: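 Agents were tested in combination matrices in half-log decrements from a top concentration at or near clinical Cmax (10 microM if undetermined). Targets were multi-cell spheroids of tumour lines plus HUVEC and MSC stromal cells.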

[1] = second compound 0.00316 µM, first compound 0.0316 µM
[2] = second compound 0.00316 µM, first compound 0.1 µM
[3] = second compound 0.01 µM, first compound 0.0316 µM
[4] = second compound 0.01 µM, first compound 0.1 µM
[5] = second compound 0.0316 µM, first compound 0.0316 µM
[6] = second compound 0.0316 µM, first compound 0.1 µM
[7] = second compound 0.1 µM, first compound 0.0316 µM
[8] = second compound 0.1 µM, first compound 0.1 µM
[9] = second compound 0.316 µM, first compound 0.0316 µM
[10] = second compound 0.316 µM, first compound 0.1 µM
[11] = second compound 1 µM, first compound 0.0316 µM
[12] = second compound 1 µM, first compound 0.1 µM
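Note: spheroids exposed to compounds for 7 days before readout.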
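Throughout, for viability, T/C: 100% = DMSO vehicle control viability.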

IC50 (second compound 0.00316 µM): < 31.6 nM
IC50 (second compound 0.01 µM): < 31.6 nM
IC50 (second compound 0.0316 µM): < 31.6 nM
IC50 (second compound 0.1 µM): < 31.6 nM
IC50 (second compound 0.316 µM): < 31.6 nM
IC50 (second compound 1 µM): < 31.6 nM
Compound: CC(C)NCC(C(=O)N1CCN(c2ncnc3c2C(C)CC3O)CC1)c1ccc(Cl)cc1 (centres undefined) + C=CC(=O)N1CCN(c2nc(OCC3CCCN3C)nc3c(F)c(-c4nc(N)cc(C)c4C(F)(F)F)c(Cl)cc23)C(C)C1
viability, T/C [1]: 19.3%
viability, T/C [2]: 17.8%
viability, T/C (second compound 0.00316 µM, first compound 0.316 µM): 16.5%
viability, T/C (second compound 0.00316 µM, first compound 1 µM): 22.4%
viability, T/C (second compound 0.00316 µM, first compound 3.16 µM): 12.7%
viability, T/C (second compound 0.00316 µM, first compound 10 µM): 8.85%
viability, T/C [3]: 18%
viability, T/C [4]: 21.5%
viability, T/C (second compound 0.01 µM, first compound 0.316 µM): 18.3%
viability, T/C (second compound 0.01 µM, first compound 1 µM): 14.3%
viability, T/C (second compound 0.01 µM, first compound 3.16 µM): 13.1%
viability, T/C (second compound 0.01 µM, first compound 10 µM): 7.71%
viability, T/C [5]: 26.6%
viability, T/C [6]: 17.3%
viability, T/C (second compound 0.0316 µM, first compound 0.316 µM): 16.8%
viability, T/C (second compound 0.0316 µM, first compound 1 µM): 14.7%
viability, T/C (second compound 0.0316 µM, first compound 3.16 µM): 10.8%
viability, T/C (second compound 0.0316 µM, first compound 10 µM): 11.1%
viability, T/C [7]: 19.6%
viability, T/C [8]: 17.1%
viability, T/C (second compound 0.1 µM, first compound 0.316 µM): 17.9%
viability, T/C (second compound 0.1 µM, first compound 1 µM): 15%
viability, T/C (second compound 0.1 µM, first compound 3.16 µM): 10.6%
viability, T/C (second compound 0.1 µM, first compound 10 µM): 6.28%
viability, T/C [9]: 19.6%
viability, T/C [10]: 16.8%
viability, T/C (second compound 0.316 µM, first compound 0.316 µM): 15.3%
viability, T/C (second compound 0.316 µM, first compound 1 µM): 13.8%
viability, T/C (second compound 0.316 µM, first compound 3.16 µM): 13.5%
viability, T/C (second compound 0.316 µM, first compound 10 µM): 8.85%
viability, T/C [11]: 17.9%
viability, T/C [12]: 18.7%
viability, T/C (second compound 1 µM, first compound 0.316 µM): 16.8%
viability, T/C (second compound 1 µM, first compound 1 µM): 12%
viability, T/C (second compound 1 µM, first compound 3.16 µM): 12.3%
viability, T/C (second compound 1 µM, first compound 10 µM): 8.38%

IC50 (second compound 0.00316 µM): < 0.316 nM
IC50 (second compound 0.01 µM): < 0.316 nM
IC50 (second compound 0.0316 µM): < 0.316 nM
IC50 (second compound 0.1 µM): < 0.316 nM
IC50 (second compound 0.316 µM): < 0.316 nM
IC50 (second compound 1 µM): < 0.316 nM
Compound: CC(C)n1nc(-c2ccc3oc(N)nc3c2)c2c(N)ncnc21 + C=CC(=O)N1CCN(c2nc(OCC3CCCN3C)nc3c(F)c(-c4nc(N)cc(C)c4C(F)(F)F)c(Cl)cc23)C(C)C1
viability, T/C (second compound 0.00316 µM, first compound 0.000316 µM): 19.5%
viability, T/C (second compound 0.00316 µM, first compound 0.001 µM): 21.4%
viability, T/C (second compound 0.00316 µM, first compound 0.00316 µM): 19.4%
viability, T/C (second compound 0.00316 µM, first compound 0.01 µM): 14.4%
viability, T/C [1]: 11.6%
viability, T/C [2]: 9.02%
viability, T/C (second compound 0.01 µM, first compound 0.000316 µM): 19.6%
viability, T/C (second compound 0.01 µM, first compound 0.001 µM): 21.8%
viability, T/C (second compound 0.01 µM, first compound 0.00316 µM): 17.9%
viability, T/C (second compound 0.01 µM, first compound 0.01 µM): 14.4%
viability, T/C [3]: 10.7%
viability, T/C [4]: 6.76%
viability, T/C (second compound 0.0316 µM, first compound 0.000316 µM): 22.7%
viability, T/C (second compound 0.0316 µM, first compound 0.001 µM): 17.5%
viability, T/C (second compound 0.0316 µM, first compound 0.00316 µM): 19.2%
viability, T/C (second compound 0.0316 µM, first compound 0.01 µM): 14.4%
viability, T/C [5]: 10.2%
viability, T/C [6]: 7.17%
viability, T/C (second compound 0.1 µM, first compound 0.000316 µM): 22.1%
viability, T/C (second compound 0.1 µM, first compound 0.001 µM): 18.2%
viability, T/C (second compound 0.1 µM, first compound 0.00316 µM): 19.4%
viability, T/C (second compound 0.1 µM, first compound 0.01 µM): 11.9%
viability, T/C [7]: 10.1%
viability, T/C [8]: 7.39%
viability, T/C (second compound 0.316 µM, first compound 0.000316 µM): 19.4%
viability, T/C (second compound 0.316 µM, first compound 0.001 µM): 18%
viability, T/C (second compound 0.316 µM, first compound 0.00316 µM): 17.8%
viability, T/C (second compound 0.316 µM, first compound 0.01 µM): 14.7%
viability, T/C [9]: 9.18%
viability, T/C [10]: 8.16%
viability, T/C (second compound 1 µM, first compound 0.000316 µM): 19.5%
viability, T/C (second compound 1 µM, first compound 0.001 µM): 22.9%
viability, T/C (second compound 1 µM, first compound 0.00316 µM): 16.6%
viability, T/C (second compound 1 µM, first compound 0.01 µM): 13.4%
viability, T/C [11]: 11.6%
viability, T/C [12]: 8.02%
